Assay results reported in patent publication EP1228058B1, “BENZOPYRANYL GUANIDINE DERIVATIVES, PROCESS FOR PREPARATION THEREOF, AND PHARMACEUTICAL COMPOSITIONS CONTAINING THEM” (Dongbu Hannong Chemical Co., Ltd., priority 1999, dated 2001).
Read-outs that look alike come from different tables or passages of the source.

What was measured:
rat brain homogenate = assay: Inhibition of iron-induced lipid peroxidation (MDA quantification); format: biochemical; details: 100 uM; FeCl2 400 uM, 37 °C, 30 min
Method: The rat brain was homogenized in a Krebs buffer (15 mM HEPES, 10 mM glucose, 140 mM NaCl, 3.6 mM KCl, 1.5 mM CaCl2, 1.4 mM KH2PO4, 0.7 mM MgCl2, pH 7.4) and the supernatant separated by centrifugation at 12,000 rpm for 10 min. was used for further experiments. FeCl2 was added to a final concentration of 400 uM in the brain homogenate which was then allowed to stand at 37 °C for 30 min. for the facilitation of oxidation. Each of the test compounds was added at a concentration of 100 uM and vehicle was used as a control.
Iron facilitates the oxidation of the brain homogenate to produce malondialdehyde (MDA), a lipid peroxidation product. Thus, the lipid peroxidation was determined by MDA quantification. The inhibitory effect of the test compounds against the lipid peroxidation was evaluated by calculating MDA reduction rate of the test compounds compared with that of the control group.
Typically, the MDA quantification is achieved by reacting samples with 2-thiobarbituric acid (TBA) and measuring the absorbance at 530 nm. However, this method is unsuitable to treat samples on a large scale because of a boiling step. Thus, in this experiment, N-methyl-2-phenylindole was used instead of TBA. […] Bioxytech^R LPO-586 Kit was used for MDA quantification.

rat aorta = assay: Vasodilation effects on isolated blood vessels of rats (methoxamine-constricted aortic rings); format: cell-based; details: isolated rat aorta constricted with methoxamine (3 uM); read-out: Vasodilation Activity (in Vitro, rat aorta) (IC50)
Description: Male Sprague-Dawly rats (350-450 g, obtained from the Experimental Animal Team of the Korea Research Institute of Chemical Technology) were knocked unconscious by hitting the occipital region, sacrificed by cervical dislocation, and underwent thoracotomy. After being quickly removed, the thoracic aorta was deprived of the adipose tissue and cut into aortic rings of 3 mm width. The aorta was lightly rubbed with a modified Krebs Henseleit buffer (Physiological Salt Solution, PSS) soaked cotton club to remove the inner epithelial layer therefrom. While being suspended in an organ bath containing a physiological buffer, the vascular tissue was allowed to equilibrate under a resting tension of 2 g and then, stand for 1 hour at 37 °C for stabilization with a supply of a carbogen consisting of 95% O2-5% CO2.
Thereafter, the vascular tissue was constricted with 10^-5 M phenylephrine and washed several times with PSS and this procedure was repeated again to ensure the stable reacivity of vascular smooth muscle to repetitive constriction/dilatation.
In addition, 3x10^-6 M methoxamine was used to induce an intensive constriction in the vascular smooth muscle. When the vasoconstriction induced by the methoxamine reached and maintained a maximum, test compounds and controls were cumulatively added to the organ baths in concentrations of 1, 3, 10 and 30 uM so as to induce vasodilatation. As for the controls, they were Cromakalim and BMS-180448 (the compounds of the chemical formula 2), both known to be the first generation KATP activator with potent vasodilatation and cardioprotection effects.
Following the addition of the drugs, the change in the maximal constriction induced by methoxamine was calculated to plot a concentration-dilation response curve. Through a linear regression analysis, IC50, the drug concentration at which the vascular tissue is 50% dilated, was obtained for each drug.

[1] = Acute oral toxicity test in rats; details: rat, in vivo, single oral dose in 0.5% methyl cellulose, read-out: lethal dose (LD50) for oral administration
How it was run: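 Six-week-old SPF SD rats, two per group, received a single oral dose of 1 g/kg suspended in 0.5% methyl cellulose (10 ml/kg). Survivors at the end of observation underwent haematology, serum chemistry, necropsy and histopathology of vital organs with macroscopic lesions.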

HUVEC [2] = assay: Inhibition of HUVEC tube formation on Matrigel; format: cell-based, Human; set-up: key: -: no effect; +/-: week effect; +: moderate effect; ++: strong effect
Method: HUVEC (Human umbilical vein endothelial cells, ATCC CRL-1730) were cultured, and tubulogenesis was induced in vascular endothelial cells by plating them onto the surface of Matrigel for several hours. The effects on tube formation of the test compounds were compared with the vehicle treated controls, then confirmed their in vitro anti-angiogenic effect indirectly.

HUVEC [3] = assay: Inhibition of intracellular ROS induced by H2O2 (H2DCFDA) in HUVEC; format: cell-based, Human; details: Homo sapiens; for inhibition at 10 µM: Conc. 10^-5 M; for inhibition at 1 µM: Conc. 10^-6 M; for inhibition at 0.1 µM: Conc. 10^-7 M
Method: Measurement of intracellular ROS (Reactive Oxygen Species) was determined using H2DCFDA (2',7'-dichlorodihydrofluorescein diacetate, Molecular Probes, Eugene, OR, USA). H2DCFDA is a non-polar compound that readily diffused into cells, where it is hydrolyzed by intracellular esterase to polar derivative H2DCF (2',7'-dichlorodihydrofluorescein) which can not cross the cell membrane, and thereby trapped within the cell. H2DCF is low-fluorescent, but converted to high-fluorescent DCF (2',7'-dichlorofluorescein) by intracellular ROS. Therefore, the intracellular ROS formation can be determined from the amount of converted DCF. HUVEC (Human umbilical Vascular Endothelial Cells) or A7r5 (Rat thoracic aorta smooth muscle cells) were used. HUVEC were cultured in Kaighn's F12K medium supplemented with 10% heat-inactivated FBS, 0.1 mg/ml heparin sodium, 0.03-0.05 mg/ml ECGS (Endothelial cell growth supplement) and 1% antibiotics, and A7r5 were cultured in DMEM supplemented with 10% heat inactivated FBS and 1% antibiotics. To measure the intracellular ROS, HUVEC or A7r5 were preincubated for 30 min in the presence of test compounds (10^-7-10^-5 M). Thereafter, cells were stimulated with H2O2 (10^-6 and 10^-5 M for 20 min), and then incubated in the dark for 2 hr at 37 °C in 50 mM phosphate buffer (pH 7.4) containing 5 uM H2DCFDA. The quantity of DCF fluorescence (485 nm excitation, 530 nm emission) was measured using Fluorescence plate reader (FL600, Biotek Instruments).

[4] = read-out: Inhibition (%) H2O2 (10^-5M)
[5] = read-out: Inhibition (%) H2O2 (10^-6M)

Question: What does the source list for `COC(OC)[C@@]1(C)Oc2ccc([N+](=O)[O-])cc2[C@H](NC(=NC#N)Nc2ccccc2Cl)[C@H]1O` [Example 32, (2S, 3R, 4S)-N''-cyano-N-(6-nitro-3,4-dihydro-3-hydroxy-2-methyl-2-dimethoxymethyl-2H-benzopyran-4-yl)-N'-(2-chlorophenyl)guanidine]?
Answer: % Inhibition (rat brain homogenate): 86%; IC50 (rat aorta): 3.57 µM; LD50 [1]: > 1000 mg/kg

Question: Which “% Inhibition” value (rat brain homogenate) does the source give for `COC(OC)[C@@]1(C)Oc2ccc([N+](=O)[O-])cc2[C@H](NC(=NC#N)NCc2ccccc2)[C@H]1O` [Example 24, (2S, 3R, 4S)-N''-cyano-N-(6-nitro-3,4-dihydro-3-hydroxy-2-methyl-2-dimethoxymethyl-2H-benzopyran-4-yl)-N'-benzylguanidine] here?
Answer: 12%

Question: And the IC50 (rat aorta)?
Answer: 9.78 µM

Question: What about the LD50 [1] of the same compound?
Answer: > 1000 mg/kg

Question: And the “Inhibitory Effects on Tube Formation” value (HUVEC [2]; 100 uM)?
Answer: +

Question: With `COC(OC)[C@@]1(C)Oc2ccc([N+](=O)[O-])cc2[C@@H](NC(=NC#N)NCc2ccccc2)[C@@H]1OC(C)=O` [Example 38, (2S, 3S, 4R)-N''-cyano-N-(6-nitro-3,4-dihydro-3-acetoxy-2-methyl-2-dimethoxymethyl-2H-benzopyran-4-yl)-N'-benzylguanidine] as the compound, how does the “% Inhibition” value (rat brain homogenate) read?
Answer: 4%

Question: What about the IC50 (rat aorta) of the same compound?
Answer: 24.5 µM

Question: What about the LD50 [1] of the same compound?
Answer: > 1000 mg/kg

Question: For `COC(OC)[C@@]1(C)Oc2ccc(N)cc2[C@@H](NC(=NC#N)NCc2ccccc2)[C@@H]1O` [Example 40, (2S, 3S, 4R)-N''-cyano-N-(6 - amino-3,4-dihydro-3-hydroxy-2-methyl-2-dimethoxymethyl-2H-benzopyran-4-yl)-N'-benzylguanidine], which “% Inhibition” value (rat brain homogenate) is on record?
Answer: 79%

Question: What about the IC50 (rat aorta) of the same compound?
Answer: > 30 µM

Question: And the LD50 [1]?
Answer: > 1000 mg/kg

Question: What about the inhibition at 10 µM (HUVEC [3]; [4]) of the same compound?
Answer: 54.9%

Question: And the inhibition at 10 µM (HUVEC [3]; [5])?
Answer: 63.1%

Question: What about the inhibition at 1 µM (HUVEC [3]; [4]) of the same compound?
Answer: 25.8%

Question: And the inhibition at 1 µM (HUVEC [3]; [5])?
Answer: 46.1%

Question: What about the inhibition at 0.1 µM (HUVEC [3]; [4]) of the same compound?
Answer: 12%

Question: And the inhibition at 0.1 µM (HUVEC [3]; [5])?
Answer: 17.6%

Question: What about the “Inhibitory Effects on Tube Formation” value (HUVEC [2]; 10 uM) of the same compound?
Answer: +

Question: What about the “Inhibitory Effects on Tube Formation” value (HUVEC [2]; 100 uM) of the same compound?
Answer: ++

Question: What does the source list for `COC(OC)[C@@]1(C)Oc2ccc([N+](=O)[O-])cc2[C@@H](NC(=NC#N)NCc2ccccc2)[C@@H]1O` [Example 25, (2S, 3S, 4R)-N''-cyano-N-(6-nitro-3,4-dihydro-3-hydroxy-2-methyl-2-dimethoxymethyl-2H-benzopyran-4-yl)-N'-benzylguanidine]?
Answer: % Inhibition (rat brain homogenate): 2%; IC50 (rat aorta): > 30 µM; LD50 [1]: > 1000 mg/kg
